In patent US9408395B2, “Process for potentiating the production of Lingzhi mushroom (Ganoderma lucidum) substances and antifungal activity thereof” (UNIVERSIDAD DE ANTIOQUIA (UDEA), priority 2013, dated 2016):

Experiments:
Mycosphaerella fijiensis [1] = assay: Mycelium growth inhibition in microplate format, protein extracts; format: cell-based; settings: 0.3 ppm
Procedure: In order to obtain protein extracts, the optimized protein extraction protocol was followed (Item 4.1.2). Later, the protein pellet was re-suspended in 1 ml PBS pH 7.4 buffer, 200 μL DMSO and 200 μL glycerol. The protein extracts of each LED were quantified by the Bradford method (Bio-Rad Protein Assay®) (61). […] The extracts were diluted in pH 7.4 PBS phosphate buffer.
The Mycosphaerella fijiensis-inoculated microplates and also treated with the different extracts were incubated. Readings were performed according to the Standard Norm. Each concentration was assayed in three repetitions, including three experiment replicas (63, 64). Thereafter, the determination of the growth inhibition percentage for each concentration of each protein extract used was performed (65-67).
Through the use of logic models (non linear regressions) the relationship between the concentration logarithm of each antifungal (x axis) versus inhibition percentage (y axis) was established thus obtaining the respective equations, for EC50 analysis for each treatment at 5 concentrations, in order to determine the necessary concentration of each extract to reduce the population growth by 50% at an in vitro level.
In order to determine which the best protein extract for Mycosphaerella fijiensis mycelium growth inhibition was, a statistical analysis using a category factorial design was performed. […]

Mycosphaerella fijiensis [2] = assay: Agar diffusion assay (plate diffusion method); format: cell-based; settings: compared to other treatments and growth control
Procedure: In order to corroborate antifungal activity of each extract, said activity was assayed in Petri dishes using the plate diffusion method; for said purpose, 20 ml of PDA medium were dispensed for a final thickness of 4 mm. After homogenizing inocula, deep plating was performed wherein each plate was inoculated using 2×10^4 Mycosphaerella fijiensis mycelium fragments. Afterwards, using a 0.5 mm internal diameter punch, wells were made wherein 10 or 20 μL of each extract were deposited, in addition to the inhibition positive control using Mancozeb and a negative control using a 1:1 ethanol:DMSO mix. The plates were incubated in darkness conditions, 25±1° C. for seven days.

Mancozeb
Inhibition of Mycosphaerella fijiensis growth (Mycosphaerella fijiensis [1]): 72% | Mycelium growth inhibition (in words) (Mycosphaerella fijiensis [2]): entirely inhibited
